Laboratory results from PubChem BioAssay AID652053 (Broad Institute, 2013).
Where “and” joins values, the source holds several entries; their conditions need not be identical. Equal values may be shown once.

What follows are molecules tested on Huh7 psiCHECK-miR122 Renilla luciferase reporter, 48 h (assay: suppression of miR-122 activity, Renilla luciferase sensor – cell-based, Huh7 psiCHECK-miR122, cherry-pick, dose response (AID 652053)).
Work on `CC(=O)Nc1ccc(C(=O)Nc2ccc(S(=O)(=O)NCC3CCCO3)cc2)cc1` (stereo not given) yielded an AC40 of 2.69 µM.
Work on `CC(=O)N1CCOc2ccc(S(=O)(=O)Nc3cccc(C)c3)cc21` yielded an AC40 of 1.64 µM.
For `Cc1ccc(S(=O)(=O)Nc2ccccc2-c2ccccc2)cc1`, the AC40 was 12.4 µM.
Molecule `COc1ccc(NS(=O)(=O)c2cccc(Cl)c2)cc1S(=O)(=O)N1CCCCC1` has an AC40 of 4.35 µM.
In the case of `COc1cc2oc3ccccc3c2cc1N(CC(=O)N(C)C)S(=O)(=O)c1ccccc1`, the AC40 is reported as 4.54 µM.
Work on `Cc1cc(C)c(C)c(S(=O)(=O)Nc2ccc(O)cc2)c1C` yielded an AC40 of 6.69 µM.
Work on `CCNc1ccc(S(=O)(=O)N(C)C)cc1NCC(=O)Nc1ccc(F)c(Cl)c1` yielded an AC40 of 1.45 µM.
`Cc1ccc(CN2CCSc3ccc(C(=O)NCc4cccnc4)cc32)cc1` showed an AC40 of 10.6 µM.
For `Cc1ccc(S(=O)(=O)Nc2c(C)ccc3nsnc23)cc1`, the AC40 was 17.6 µM.
Molecule `C[C@@H]1CN([C@H](C)CO)C(=O)Cc2cc(NC(=O)Nc3ccccc3)ccc2O[C@@H]1CN(C)C(=O)Nc1cccc2ccccc12` has an AC40 of 0.756 µM.
For `CCOc1cc(N2CCOCC2)c(OCC)cc1NS(=O)(=O)c1ccc(Cl)s1`, the AC40 was 32.9 µM.
`O=S(=O)(NCCOCC(F)(F)C(F)F)c1ccc2oc3ccccc3c2c1` gave an AC40 of 15.3 µM.
For `CCc1cccc(NS(=O)(=O)c2ccc3c(c2)NC(=O)CO3)c1`, the AC40 was 7 µM.
In the case of `Cc1cc(S(=O)(=O)Nc2cccc(Cl)c2)c(C)s1`, the AC40 is reported as 0.486 µM.
`O=S(=O)(N/N=C\c1cccn1-c1ccccc1)c1ccc2ccccc2c1` gave an AC40 of 0.263 µM.
`COc1cccc(N2CCN(C(=O)c3oc4ccccc4c3NC(=O)CCc3cc(OC)no3)CC2)c1` was tested, and the AC40 was 1.31 µM.
Work on `Cc1ccc(-c2cc(C(=O)NCCCn3ccnc3)c3ccccc3n2)s1` yielded an AC40 of 11.1 µM.
In the case of `CCCCCCNS(=O)(=O)c1ccc(OC)c(OC)c1`, the AC40 is reported as 4.67 µM.
For `CCc1cccc2c(C(=O)CN3C(=O)NC4(CCCCC4)C3=O)c[nH]c12`, the AC40 was 6.01 µM.
`COc1ccc(N2CCN(C(=O)c3csc4ccccc34)CC2)cc1` gave an AC40 of 15.9 µM.
For `COc1ccccc1C(=O)Nc1ccc2c(c1)C(=O)N(C)[C@H]1CC[C@@H](CC(=O)NCc3ccc(Cl)c(Cl)c3)O[C@@H]1CO2`, the AC40 was 2.85 µM.
For `C[C@H](CO)N1C[C@H](C)[C@@H](CN(C)Cc2ccc3c(c2)OCO3)Oc2c(NC(=O)C3CC3)cccc2C1=O`, the AC40 was 11.7 µM and 3.61 µM.
With `Cc1ccc(S(=O)(=O)N2CCC3(CC2)OCCN3S(=O)(=O)c2cccs2)cc1` the AC40 was 3.63 µM.
Work on `CCOC(=O)c1c(NC(=O)c2ccccc2N(C)S(=O)(=O)c2ccccc2)sc2c1CCCC2` yielded an AC40 of 13.3 µM.
`CCc1ccc(-c2cc(C)no2)cc1S(=O)(=O)NCc1ccccc1OC` gave an AC40 of 3.11 µM.
For `O=C(NC1CCCC1)C(c1ccccc1)N(Cc1ccc2c(c1)OCO2)C(=O)Cc1cccs1` (stereo not given), the AC40 was 6.85 µM.
`Nc1ncc(Br)cc1S(=O)(=O)NCCc1ccccc1` gave an AC40 of 0.647 µM.
Molecule `O=C(Nc1ccc(S(=O)(=O)NCc2ccccc2)cc1)Nc1ccc2c(c1)OCO2` has an AC40 of 2.08 µM.
`O=C(Nc1sc2c(c1C(=O)O)CCCCC2)c1ccco1` showed an AC40 of 2.49 µM.
`C=CCN(CC=C)S(=O)(=O)c1ccc2nc(NC(=O)C(C)C)sc2c1` gave an AC40 of 8.29 µM.
`Cc1ccc(NS(=O)(=O)c2cc3c(cc2C)NC(=O)CO3)cc1` showed an AC40 of 5.89 µM.
Molecule `CCc1ccc(-c2cc(C)no2)cc1S(=O)(=O)NC(C)Cc1ccco1` (stereo not given) has an AC40 of less than 0.26 µM.
`O=C(c1cn(Cc2ccccc2)nc1-c1ccc(Cl)cc1)N1CCN(c2ccccn2)CC1` showed an AC40 of 3.28 µM.
For `Nc1ncc(Br)cc1S(=O)(=O)NC1CCCCC1`, the AC40 was 2.19 µM.
In the case of `O=S(=O)(Nc1ccc(N2CCOCC2)cc1)c1cc(Cl)ccc1Cl`, the AC40 is reported as 26.6 µM.
`COCC(=O)Nc1ccc(S(=O)(=O)NCCc2ccccc2)cc1` gave an AC40 of 12.9 µM.
Work on `COc1ccc(NP(=O)(Oc2ccc(Cl)cc2)Oc2ccc(Cl)cc2)cc1OC` yielded an AC40 of 7.43 µM.
Molecule `CCOc1ccccc1NC(=O)Cn1nnc(C(=O)NCc2cccs2)c1N` has an AC40 of 5.91 µM.
`FC(F)(F)c1cccc(NC(=S)NCCc2ccccn2)c1` was tested, and the AC40 was 2.88 µM.
Molecule `O=c1c2ccccc2nnn1CSc1nnc(C2COc3ccccc3O2)n1-c1ccccc1` (stereo not given) has an AC40 of 19.2 µM.
`C[C@H](CO)N1C[C@H](C)[C@@H](CN(C)Cc2ccc(Cl)c(Cl)c2)Oc2c(NS(=O)(=O)c3cccs3)cccc2C1=O` was tested, and the AC40 was 2.7 µM.
`O=C(CCc1ccc(S(=O)(=O)NC2CCCCC2)cc1)N(Cc1ccccc1)Cc1ccccc1` gave an AC40 of 2.07 µM.
For `COc1cccc(NS(=O)(=O)c2c(C)cc(C)cc2C)c1`, the AC40 was 3.37 µM.
`CCOc1ccc(Br)cc1S(=O)(=O)NC1CCCC1` was tested, and the AC40 was 1.29 µM.
With `Cn1c(=O)n(C)c2cc(NS(=O)(=O)c3ccc(C(C)(C)C)cc3)ccc21` the AC40 was 8.31 µM.
For `Cc1ccc2ccccc2c1C(O)c1ncc(-c2ccccc2F)[nH]1` (stereo not given), the AC40 was 4.22 µM.
With `O=C(C(=O)N(Cc1ccccc1)Cc1ccccc1)c1c(-c2ccccc2)[nH]c2ccccc12` the AC40 was 1 µM.
For `Cc1ccc(NC(=O)CNC(=O)c2cccs2)cc1S(=O)(=O)Nc1ccc(Cl)cc1`, the AC40 was 3.31 µM.
Work on `CCC1=Nc2cc(C(=O)NCc3ccco3)ccc2Sc2ccc(C)cc21` yielded an AC40 of 4.49 µM.
`Cc1ccc(S(=O)(=O)Nc2cccc3c2O[C@H](CN(C)Cc2ccc(C(=O)Nc4ccccc4N)cc2)[C@H](C)CN([C@H](C)CO)C3=O)cc1` showed an AC40 of 10.8 µM.
